We go through 15 compounds from ChEMBL document CHEMBL1201862, “PubChem BioAssay data set” (2004).

Active and inactive are the calls of the source. Some results are limits rather than exact numbers.

System in one experiment: not listed separately
Nature of the experiment: P. falciparum Dd2 growth inhibitors, dose response, SYBR Green, cherry-picked samples (AID 1159567). The format is functional, cell-based.
Conditions: not given
A word on the AC50: it is the midpoint of the concentration-response curve, whichever way the signal moves. As to `COc1ccccc1S(=O)(=O)N(C)C[C@@H]1Oc2cc(C#CCC(C)C)ccc2S(=O)(=O)N([C@@H](C)CO)C[C@H]1C`, the AC50 is 0.652 µM (active).

Turning to `COc1cccc(CN2CC3(C2)CN(C(=O)Nc2ccc(F)cc2)[C@@H](CO)c2c3c3ccc(OC)cc3n2C)c1`, the AC50 was 2.98 µM (active).

With `c1ccc(-c2ccc([C@@H]3[C@@H]4CN(Cc5cccnc5)C[C@H]3N4)cc2)cc1`, the AC50 was 0.472 µM (active).

In the case of `COc1cccc(NC(=O)N2[C@H](CO)[C@H](c3ccccc3)[C@H]2CNCC(C)C)c1`, the AC50 was 1.78 µM (active).

For the compound `C/C=C/c1ccc([C@H]2[C@@H]3CN(C(=O)Nc4ccc(C(F)(F)F)cc4)C[C@H]2N3)cc1`, the AC50 was 3.42 µM (active).

`COc1ccc2c3c(n(C)c2c1)[C@@H](CO)N(Cc1ccccc1OC)CC31CCN(CC2CC2)CC1`: the AC50 is 1.29 µM (active).

Turning to `Cc1ccc(-c2ccc([C@@H]3[C@@H]4CN(Cc5cccnc5)C[C@H]3N4)cc2)cc1`, the AC50 was 0.457 µM (active).

In the next experiment the target is Estrogen receptor beta (Homo sapiens, UniProt Q92731). Nature of the experiment: ERβ–SRC-3 coactivator interaction inhibitors, confirmation, orthogonal assay, biochemical, ELISA, streptavidin-HRP readout (AID 1060).
Sequence of Estrogen receptor beta (Q92731 whole entry): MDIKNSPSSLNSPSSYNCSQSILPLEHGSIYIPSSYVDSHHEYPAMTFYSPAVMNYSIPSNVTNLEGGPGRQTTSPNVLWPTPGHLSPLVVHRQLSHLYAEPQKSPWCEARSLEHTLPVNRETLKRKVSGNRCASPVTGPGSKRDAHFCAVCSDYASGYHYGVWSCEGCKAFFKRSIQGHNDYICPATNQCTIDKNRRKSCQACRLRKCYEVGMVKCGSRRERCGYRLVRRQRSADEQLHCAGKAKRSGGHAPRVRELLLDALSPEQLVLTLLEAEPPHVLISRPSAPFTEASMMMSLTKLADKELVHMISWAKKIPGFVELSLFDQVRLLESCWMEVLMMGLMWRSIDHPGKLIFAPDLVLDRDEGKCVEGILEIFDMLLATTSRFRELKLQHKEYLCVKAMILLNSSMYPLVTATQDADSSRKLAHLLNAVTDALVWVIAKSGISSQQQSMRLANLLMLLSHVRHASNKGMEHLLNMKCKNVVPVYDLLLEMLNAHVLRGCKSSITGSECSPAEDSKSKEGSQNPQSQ
Conditions: not given
As a reminder, the IC50 is the concentration that inhibits the measured activity by half. With `COCCCn1c(Cc2csc(Nc3cccc(Cl)c3)n2)nnc1SCC(=O)OC`, the IC50 is 17 µM (not active).

Take `OC(COc1ccc(C2C=CCC2)cc1)CN1CCCCC1` (stereo not given): the IC50 is reported as 13.1 µM (not active).

In the case of `CC1CCCC(C)N1CC(=O)Nc1sc2c(c1C#N)CCC2` (stereo not given), the 50% inhibitory concentration (IC50) was 22.5 µM (not active).

In another experiment the target is T1, Microphthalmia-associated transcription factor (Homo sapiens, UniProt O75030).
T1 sequence (O75030 whole entry): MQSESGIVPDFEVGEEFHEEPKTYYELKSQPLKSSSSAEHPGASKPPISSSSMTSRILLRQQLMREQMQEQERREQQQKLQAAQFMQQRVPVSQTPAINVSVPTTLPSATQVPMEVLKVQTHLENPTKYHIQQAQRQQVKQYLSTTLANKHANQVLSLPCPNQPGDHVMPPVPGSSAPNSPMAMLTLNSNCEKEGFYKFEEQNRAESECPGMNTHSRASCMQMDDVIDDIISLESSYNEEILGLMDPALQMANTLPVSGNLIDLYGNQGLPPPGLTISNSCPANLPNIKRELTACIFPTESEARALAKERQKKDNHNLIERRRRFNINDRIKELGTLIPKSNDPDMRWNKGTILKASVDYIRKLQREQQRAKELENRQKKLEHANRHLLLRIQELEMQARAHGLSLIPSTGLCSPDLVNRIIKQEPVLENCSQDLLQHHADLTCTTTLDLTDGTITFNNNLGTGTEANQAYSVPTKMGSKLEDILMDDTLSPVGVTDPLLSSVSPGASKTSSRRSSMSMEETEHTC
The experiment in a line: TRPM1 promoter luciferase signal decrease, dose response, MITF inhibitor project, cell-based, SK-MEL-5, cherry-picked, set 3 (AID 493073).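 Note: SK-MEL-5 melanoma cells with luciferase driven by the MITF target TRPM1 promoter.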 Type of experiment: functional.
Conditions: not given
As for `CC1CN(C(=O)CCC(=O)NCCCN2CCC(Cc3ccccc3)CC2)c2cc(Cl)ccc2O1` (stereo not given), the AC50 is 16.2 µM (active).

Take `S=C=Nc1cccc(C2(N3CCCCC3)CCCCC2)c1` [METAPHIT METHANESULFONATE]: the AC50 was 7.36 µM (active).

System in the next experiment: not listed separately
Nature of the experiment: cells.
Conditions: not given
With `N#Cc1nc(-c2cccc3ccccc23)oc1N`, the IC50 is 23.2 µM (active).

In the case of `CCCC(=O)Nc1ccc(-c2nc3cc(C)c(C)cc3o2)cc1`, the IC50 is 48.2 µM (active).

Consider `COc1ccc(C(=O)N2CC(c3ccc(Cl)cc3)CC2=O)cc1` (stereo not given), for which the IC50 was 31.5 µM (active).

System in a further experiment: not listed separately
Nature of the experiment: P. falciparum ATP4 D1247Y mutant growth inhibitors, dose response, NITD609-resistant line, SYBR Green, dry powder (AID 1159571).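 Note: parasites synchronized at ring stage by sorbitol before testing.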 Type of experiment: functional, cell-based.
Conditions: not given
Turning to `COc1ccccc1S(=O)(=O)N(C)C[C@@H]1Oc2cc(C#CCC(C)C)ccc2S(=O)(=O)N([C@@H](C)CO)C[C@H]1C`, the AC50 was 0.331 µM (active).

For the compound `COc1cccc(NC(=O)N2[C@H](CO)[C@H](c3ccccc3)[C@H]2CNCC(C)C)c1`, the AC50 was 1.26 µM (active).

Take `C/C=C/c1ccc([C@H]2[C@@H]3CN(C(=O)Nc4ccc(C(F)(F)F)cc4)C[C@H]2N3)cc1`: the AC50 is 4.31 µM (active).

Consider `COc1ccc2c3c(n(C)c2c1)[C@@H](CO)N(Cc1ccccc1OC)CC31CCN(CC2CC2)CC1`, for which the AC50 is 1.07 µM (active).

System in a further experiment: not listed separately
The experiment in a line: P. falciparum 3D7-ScDHODH growth inhibitors, dose response, SYBR Green, dry powder samples (AID 1159570).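 Note: parasite growth measured after 72 hours of compound exposure.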 Type of experiment: functional, cell-based.
Conditions: not given
For `COc1ccccc1S(=O)(=O)N(C)C[C@@H]1Oc2cc(C#CCC(C)C)ccc2S(=O)(=O)N([C@@H](C)CO)C[C@H]1C`, the AC50 was 0.521 µM (active).

`COc1cccc(NC(=O)N2[C@H](CO)[C@H](c3ccccc3)[C@H]2CNCC(C)C)c1`: the AC50 is 1.35 µM (active).

On to `C/C=C/c1ccc([C@H]2[C@@H]3CN(C(=O)Nc4ccc(C(F)(F)F)cc4)C[C@H]2N3)cc1`, for which the AC50 is 4.43 µM (active).

Turning to `COc1ccc2c3c(n(C)c2c1)[C@@H](CO)N(Cc1ccccc1OC)CC31CCN(CC2CC2)CC1`, the AC50 is 2.52 µM (active).

System in the next experiment: not listed separately
Nature of the experiment: HEp-2 cell cytotoxicity, dose response, cytotoxicity control for RSV inhibitor project, HTS (AID 2410). The format is functional. Conditions: human respiratory syncytial virus.
One may read the CC50 as the concentration at which the toxic effect on the cells reaches its halfway point. Turning to `N#Cc1nc(-c2cccc3ccccc23)oc1N`, the CC50 was > 50 µM (active).

System in another experiment: not listed separately
Nature of the experiment: HepG2 cell cytotoxicity, dose response, cytotoxicity control, cherry-picked samples (AID 1159577). The format is functional, cell-based.
Conditions: not given
Consider `COc1cccc(CN2CC3(C2)CN(C(=O)Nc2ccc(F)cc2)[C@@H](CO)c2c3c3ccc(OC)cc3n2C)c1`, for which the AC50 is 11.8 µM (active).

With `c1ccc(-c2ccc([C@@H]3[C@@H]4CN(Cc5cccnc5)C[C@H]3N4)cc2)cc1`, the AC50 was 9.31 µM (active).

With `C/C=C/c1ccc([C@H]2[C@@H]3CN(C(=O)Nc4ccc(C(F)(F)F)cc4)C[C@H]2N3)cc1`, the AC50 is 25.2 µM (active).

On to `COc1ccc2c3c(n(C)c2c1)[C@@H](CO)N(Cc1ccccc1OC)CC31CCN(CC2CC2)CC1`, for which the AC50 is > 39 µM (inactive).

Turning to `Cc1ccc(-c2ccc([C@@H]3[C@@H]4CN(Cc5cccnc5)C[C@H]3N4)cc2)cc1`, the AC50 is 9.99 µM (active).

The target in a further experiment is T2, Ubiquitin-conjugating enzyme E2 N (Homo sapiens, UniProt P61088).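 Note: Dose-response confirmation in a TR-FRET assay detecting UBC13-driven polyubiquitin chain formation, inhibition measured.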
T2 sequence (P61088 whole entry): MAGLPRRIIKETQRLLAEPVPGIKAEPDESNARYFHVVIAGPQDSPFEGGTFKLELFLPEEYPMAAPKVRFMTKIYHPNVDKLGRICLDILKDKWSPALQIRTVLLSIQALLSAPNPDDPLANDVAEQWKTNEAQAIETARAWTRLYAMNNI
Test: not given
Type of experiment: functional.
Conditions: not given
For the compound `CC1CN(C(=O)CCC(=O)NCCCN2CCC(Cc3ccccc3)CC2)c2cc(Cl)ccc2O1` (stereo not given), the IC50 is > 20 µM (inactive).

System in the next experiment: not listed separately
The experiment in a line: HepG2 cell cytotoxicity, dose response, cytotoxicity control, plate reader, dry powder samples (AID 1159569).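 Note: inhibitor potency with signal falling toward the positive control level.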 Type of experiment: functional, cell-based.
Conditions: not given
In the case of `COc1ccccc1S(=O)(=O)N(C)C[C@@H]1Oc2cc(C#CCC(C)C)ccc2S(=O)(=O)N([C@@H](C)CO)C[C@H]1C`, the AC50 was > 100 µM (inactive).

With `COc1cccc(NC(=O)N2[C@H](CO)[C@H](c3ccccc3)[C@H]2CNCC(C)C)c1`, the AC50 is 85.6 µM (active).

Turning to `C/C=C/c1ccc([C@H]2[C@@H]3CN(C(=O)Nc4ccc(C(F)(F)F)cc4)C[C@H]2N3)cc1`, the AC50 was 25.8 µM (active).

In the case of `COc1ccc2c3c(n(C)c2c1)[C@@H](CO)N(Cc1ccccc1OC)CC31CCN(CC2CC2)CC1`, the AC50 was 34.5 µM (active).

System in the next experiment: not listed separately
The experiment in a line: growth suppression of beta-catenin-knockout colon cells, dose response, cell-based, HCT116, human colon tumor (AID 1045).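 Note: HCT116 colon tumor cells with beta catenin knocked out; cells exposed to compound for 60 hours.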 Type of experiment: functional.
Conditions: not given
Broadly, the EC50 is the concentration needed to bring the measured effect to its halfway point. For the compound `OC(COc1ccc(C2C=CCC2)cc1)CN1CCCCC1` (stereo not given), the EC50 is 32 µM (active).

System in a further experiment: not listed separately
Nature of the experiment: P. falciparum Dd2 growth inhibitors, dose response, SYBR Green, dry powder samples (AID 1159566).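 Note: potency for growth inhibition with lower SYBR green DNA signal.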 Type of experiment: functional, cell-based.
Conditions: not given
On to `COc1ccccc1S(=O)(=O)N(C)C[C@@H]1Oc2cc(C#CCC(C)C)ccc2S(=O)(=O)N([C@@H](C)CO)C[C@H]1C`, for which the AC50 was 0.609 µM (active).

As to `COc1cccc(NC(=O)N2[C@H](CO)[C@H](c3ccccc3)[C@H]2CNCC(C)C)c1`, the AC50 was 0.974 µM (active).

In the case of `C/C=C/c1ccc([C@H]2[C@@H]3CN(C(=O)Nc4ccc(C(F)(F)F)cc4)C[C@H]2N3)cc1`, the AC50 was 5.42 µM (active).

In the case of `COc1ccc2c3c(n(C)c2c1)[C@@H](CO)N(Cc1ccccc1OC)CC31CCN(CC2CC2)CC1`, the AC50 is 0.522 µM (active).

System in another experiment: not listed separately
The experiment in a line: growth suppression of PTEN-null colon cells, dose response, cell-based, HCT116 PTEN knockout (AID 1047).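 Note: HCT116 colon tumor cells with PTEN knocked out; cells exposed to compound for 60 hours before readout; potency for loss of cell viability measured by luminescence.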 The format is functional.
Conditions: not given
For `OC(COc1ccc(C2C=CCC2)cc1)CN1CCCCC1` (stereo not given), the EC50 was 40.2 µM (active).
